The text below walks through data of US11458099B2, “Inhalable antimicrobial particles and methods of making the same” (The Penn State Research Foundation, priority 2017, dated 2022).

Converted amounts (≈) assume the structure as drawn. Ends that are not written are not given here.

One may read the solubility as how much of the substance goes into solution per volume. A low value points to a poorly soluble substance. A word on the IC90: it is the point of the concentration-response curve where the effect stands at 90%.

Data set [1] is described as follows: Cargo release from nanogels by dialysis into 37° C. PBS. The data set is classed as physicochemical. Conditions: from N:P 10 nanogel carrier. How it is done: Loaded BNCs in DI water were injected into 300 kDa MWCO dialysis tubing. The tubing was submerged in a 30× (by volume) bath of PBS. At predetermined time points, multiple samples (n≥3) were collected from multiple locations throughout the bath. These samples were pooled and release was characterized in the same method used for assessing initial loading. Before each measurement, volume was adjusted to that of the initial bath to ensure concentration consistency.
Next, physiologic release of the encapsulated cargo was assessed by loading each nanogel formulation into a dialysis cassette and suspending it in a release media of 37° C. PBS. The concentration of loaded drug or GFP liberated to the dialysis media was then monitored as a function of time via UV-Vis or fluorescence spectroscopy, respectively. […] The majority of encapsulated protein (>75%) was retained within the nanogel carrier for the first 24 hours, followed by a rapid release phase that occurred between 24 and 72 hours.

Data set [2] relates to dormant persister cells (MTb). As to the kind of experiment: KKL-35 viability of non-replicating MTb, Wayne model. The data set is classed as cell-based, Mycobacterium tuberculosis. To be noted: 3 days, FIG. 5B.
For a further data set, the system named is growing MTb. The data set is described as follows: KKL-35 viability of growing MTb cultures, plating assay. Conditions: FIG. 5A. The data set is classed as cell-based, Mycobacterium tuberculosis.
The next data set in a line: physchem. Conditions: water.
Another data set concerns S. aureus (+). As to the kind of experiment: MIC of VAN, NGVAN, NG (broth dilution). The format is cell-based, Staphylococcus aureus. Conditions: S. aureus vs four gram-negative pathogens. As for the experimental part:
(§1) 2× Dilutions of treatments in broth were plated into a U-bottom 96 well plate. Overnight cultures of Pseudomonas aeruginosa, Escherichia coli, Acinetobacter baumannii, Salmonella enterica and Staphylococcus aureus were incubated in cation adjusted Mueller-Hinton broth as advised by CLSI. Bacteria were diluted to an OD600 of 0.002 and plated in a 1:1 volume ratio with the treatments. These cultures were incubated overnight and MIC values were assessed by visual evaluation of growth inhibition when compared to untreated samples.
For orientation: In broth dilution the organism is exposed to a series of concentrations in liquid medium.

The subject of the next data set is A. baumannii (−). The data set is described as follows: MIC of VAN, NGVAN, NG (broth dilution). The data set is classed as cell-based. Conditions: Acinetobacter baumannii, read-out: MIC of VAN. How it is done: as §1
Another data set relates to P. aeruginosa (−). The data set is described as follows: MIC of VAN, NGVAN, NG (broth dilution). To be noted: Pseudomonas aeruginosa, read-out: MIC of VAN. The data set is classed as cell-based. How it is done:
as §1

The subject of another data set is S. enterica (−). The data set is described as follows: MIC of VAN, NGVAN, NG (broth dilution). The format is cell-based. Conditions: Salmonella enterica, drug or equivalent concentration of drug loaded into nanogels. As for the experimental part:
as §1

The test system of the next data set is E. coli (−). As to the kind of experiment: MIC of VAN, NGVAN, NG (broth dilution). The data set is classed as cell-based. To be noted: Escherichia coli, drug or equivalent concentration of drug loaded into nanogels. How it is done: as §1
The test system of data set [3] is panel of gram-negative and gram-positive bacterial pathogens. The data set is described as follows: Antibacterial activity against the whole panel. To be noted: four different gram-negative pathogens; highest concentration tested. The format is cell-based. As for the experimental part:
as §1
Next, the antibacterial activity of VAN-loaded nanogels were evaluated against a panel of gram-negative and gram-positive bacterial pathogens (Table 5). It is important to note that clinical use of VAN is generally excluded to gram-positive infections as most gram-negative pathogens are innately resistant to the drug. This is due to the thick outer membrane of gram-negative bacteria which prevents the large glycopeptide drug from diffusing into the cell wall and reaching its enzymatic target.

In the next data set the test system is S. enterica. The data set is described as follows: MIC of AMPs. The data set is classed as cell-based. Conditions: Gram −.
Data set [4] relates to M. tuberculosis. Conditions: Gram +/−.
The next data set concerns MS S. aureus. The data set is described as follows: MIC of AMPs. The data set is classed as cell-based. Conditions: Gram +.
A further data set deals with A. baumannii. The data set is described as follows: MIC of AMPs. The data set is classed as cell-based. Conditions: Gram −.
A further data set deals with P. aeruginosa. As to the kind of experiment: MIC of AMPs. To be noted: Gram −. The data set is classed as cell-based.
For the next data set, the system named is H. influenzae. The data set is described as follows: MIC of AMPs. The format is cell-based. Conditions: Gram −.
Another data set deals with MR S. aureus. To be noted: Gram +.
The test system of a further data set is B. anthrax. To be noted: Gram +.
In data set [5] the test system is M. smegmatis. As to the kind of experiment: MIC of AMPs. To be noted: Gram +/−. The data set is classed as cell-based.
Data set [6] concerns THP-1 human macrophage control cell line. To be noted: selectivity index at IC90, MTb over THP-1 human macrophage control cell line; cited from earlier work.
The subject of data set [7] is M. smegmatis. Conditions: minimum concentration inhibiting 90% culture growth; cited from earlier work.
For data set [8], the system named is M. tuberculosis. To be noted: minimum concentration inhibiting 90% culture growth; cited from earlier work.

On to `COc1cccc2c1C(=O)c1c(O)c3c(c(O)c1C2=O)C[C@@](O)(C(=O)CO)C[C@@H]3O[C@H]1C[C@H](N)[C@H](O)[C@H](C)O1` [DOX, Doxorubicin], for which, in [1], the “time to complete release” value came out at 48 h and the zero-order release rate is on record as around 4 %/hour.
Regarding `O=C(Nc1nnc(-c2ccc(F)cc2)o1)c1ccc(Cl)cc1` [KKL-35, 4-chloro-N-(5-(4-fluorophenyl)-1,3,4-oxadiazol-2-yl)benzamide], the “IC towards dormant persister cells” value in data set [2] was below 1.6 µg/mL. Further, the “IC towards growing MTb” value in the data set with growing MTb is below 1.6 µg/mL. For the same compound, the concentration in solution in the data set “physchem” (solubility) was 500 µg/mL (≈ 1570 µM). The “IC towards human HeLa cells” value with human HeLa cells is above 500 µg/mL.
Consider `CN[C@H](CC(C)C)C(=O)N[C@H]1C(=O)N[C@@H](CC(N)=O)C(=O)N[C@H]2C(=O)N[C@H]3C(=O)N[C@H](C(=O)N[C@H](C(=O)O)c4cc(O)cc(O)c4-c4cc3ccc4O)[C@H](O)c3ccc(c(Cl)c3)Oc3cc2cc(c3O[C@@H]2O[C@H](CO)[C@@H](O)[C@H](O)[C@H]2O[C@H]2C[C@](C)(N)[C@H](O)[C@H](C)O2)Oc2ccc(cc2Cl)[C@H]1O` [VAN, Vancomycin], for which, in data set [1] (first order kinetics), the “time to 90% drug release” value is at most 4 h. In the data set on S. aureus (+), the “times more effective in killing S. aureus than gram-negative pathogens” value is given as above 30 times. Moreover, the MIC in the data set with A. baumannii (−), with P. aeruginosa (−), in the data set with S. enterica (−) and in the data set on E. coli (−) was 144 µg/mL in each case. Further, the “concentration giving inhibition of bacterial growth” value in data set [3] was determined as 144 µg/mL.
On to H-KRWHWWRRHWVVW-NH2 [SMAS-1], for which the MIC with S. enterica was 80 µM; in the data set with M. tuberculosis [4] it was 3 µM; in the data set with MS S. aureus it was above 80 µM; in the data set on A. baumannii, 50 µM; with P. aeruginosa it was 50 µM; in the data set with H. influenzae, 80 µM. In addition, the MIC in the data set on MR S. aureus is above 80 µM; with B. anthrax, above 80 µM; with M. smegmatis [5], 5 µM.
On to H-WKWLKKWIK-NH2 [Entry 1], for which the MIC in the data set on S. enterica was 40 µM; against M. tuberculosis [4], 20 µM; in the data set with MS S. aureus it was above 80 µM; in the data set with A. baumannii, 25 µM; in the data set with P. aeruginosa, 10 µM; with H. influenzae it was 80 µM. Moreover, the MIC in the data set on MR S. aureus was above 80 µM; with B. anthrax it was 10 µM; in the data set with M. smegmatis [5] it was 20 µM. For the same compound, the SI90 in data set [6] was 21.3. Moreover, the figures for the IC90 in the data set with M. smegmatis [7] and in the data set with M. tuberculosis [8] were 1.9 µM and 1.1 µM, respectively.
Consider “ILRWKWRWWRWRR-NH2 [Entry 2, cationic antimycobacterial peptide, amidated C-terminus]”, for which, in data set [6], the SI90 is recorded as 21.3. The concentration for an effect of 90% (IC90) in the data set on M. smegmatis [7] is 2.4 µM.
For KRWWKWWRR-NH2 [Entry 3], the MIC in the data set on S. enterica was 80 µM; against M. tuberculosis [4] it was 10 µM; in the data set with MS S. aureus, 80 µM; with A. baumannii, 80 µM; with P. aeruginosa it was 20 µM; in the data set with H. influenzae, 80 µM. Besides, the MIC with MR S. aureus was found to be 80 µM; in the data set with B. anthrax, 80 µM; in the data set with M. smegmatis [5], 20 µM. In addition, the SI90 in [6] is 51.2. The IC90 with M. smegmatis [7] is 4.9 µM; in the data set on M. tuberculosis [8] it was 3.1 µM.
As for RRWWRWVVW-NH2 [Entry 4], the MIC with S. enterica was found to be 80 µM; against M. tuberculosis [4], 20 µM; with MS S. aureus, 20 µM; with A. baumannii it was 10 µM; in the data set on P. aeruginosa, 80 µM; in the data set on H. influenzae it was 40 µM. Moreover, the MIC with MR S. aureus, with B. anthrax and in the data set with M. smegmatis [5] was 20 µM throughout. For the same compound, in [6], the SI90 was 32.0. Further, the concentration for an effect of 90% (IC90) in the data set with M. smegmatis [7] is 11.4 µM; with M. tuberculosis [8], 5.6 µM.
